From paper PMC10779787, “An Efficient Synthesis of 1-(1,3-Dioxoisoindolin-2-yl)-3-aryl Urea Analogs as Anticancer and Antioxidant Agents: An Insight into Experimental and In Silico Studies” (Molecules, 2023) come the findings set out here.

In general, IC50 refers to the concentration that gives 50% inhibition. Lower therefore signals inhibition by little substance.

The test has as its target EGFR (Homo sapiens, UniProt P00533). The test is described as follows: EGFR kinase assay kit (BPS Bioscience), Kinase-Glo MAX luminescence, poly(Glu:Tyr […]) substrate. Type of test: biochemical. Background: Kinase-Glo measures the ATP left after a reaction by luminescence.

Sequence of EGFR (P00533 25-1210): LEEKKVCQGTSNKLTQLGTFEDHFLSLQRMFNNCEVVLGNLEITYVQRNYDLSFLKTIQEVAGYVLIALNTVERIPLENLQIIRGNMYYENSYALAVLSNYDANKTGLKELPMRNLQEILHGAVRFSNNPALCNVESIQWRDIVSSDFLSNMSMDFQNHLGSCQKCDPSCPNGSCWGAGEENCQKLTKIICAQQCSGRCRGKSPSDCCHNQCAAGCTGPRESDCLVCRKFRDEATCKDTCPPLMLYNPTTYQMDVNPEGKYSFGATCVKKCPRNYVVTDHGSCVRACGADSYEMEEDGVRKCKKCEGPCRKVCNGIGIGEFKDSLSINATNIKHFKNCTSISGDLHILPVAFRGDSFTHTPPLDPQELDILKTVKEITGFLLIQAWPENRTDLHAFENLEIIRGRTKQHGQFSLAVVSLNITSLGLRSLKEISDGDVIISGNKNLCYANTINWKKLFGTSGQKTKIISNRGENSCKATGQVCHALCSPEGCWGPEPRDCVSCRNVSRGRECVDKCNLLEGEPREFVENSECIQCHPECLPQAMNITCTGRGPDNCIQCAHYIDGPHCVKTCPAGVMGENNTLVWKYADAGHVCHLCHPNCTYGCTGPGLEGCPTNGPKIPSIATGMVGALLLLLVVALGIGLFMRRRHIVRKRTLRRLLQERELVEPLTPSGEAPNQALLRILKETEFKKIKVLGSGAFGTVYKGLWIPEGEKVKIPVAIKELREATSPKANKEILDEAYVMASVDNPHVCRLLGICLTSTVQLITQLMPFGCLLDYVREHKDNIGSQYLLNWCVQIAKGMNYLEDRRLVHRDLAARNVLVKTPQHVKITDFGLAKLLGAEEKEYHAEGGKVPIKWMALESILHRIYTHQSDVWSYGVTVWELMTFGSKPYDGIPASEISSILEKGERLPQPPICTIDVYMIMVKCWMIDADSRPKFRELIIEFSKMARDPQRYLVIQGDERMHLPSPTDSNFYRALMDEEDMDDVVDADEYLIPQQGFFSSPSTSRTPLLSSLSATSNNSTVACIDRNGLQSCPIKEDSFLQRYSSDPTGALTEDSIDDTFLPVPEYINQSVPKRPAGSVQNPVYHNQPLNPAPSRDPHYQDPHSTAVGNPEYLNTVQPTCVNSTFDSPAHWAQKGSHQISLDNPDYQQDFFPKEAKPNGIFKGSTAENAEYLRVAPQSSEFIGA

Molecule `O=C(Nc1ccc(Br)cc1)NN1C(=O)c2ccccc2C1=O` [7c, 1-(4-Bromophenyl)-3-(1,3-dioxoisoindolin-2-yl)urea] came in with an IC50 of 0.0429 ± 0.0008 µM.
